This note sets out measurements from US20130131008A1, “LIPOPHILIC MONOPHOSPHORYLATED DERIVATIVES AND NANOPARTICLES” (BOARD OF REGENTS, THE UNIVERSITY OF TEXAS SYSTEM, priority 2011, published 2013).

The experiment concerns the target T1, dCDA partially purified from BxPC-3 cells (Homo sapiens, UniProt P32320).
T1 construct: dCDA was partially purified from BxPC-3 cells as previously described; endogenous in cells; host or cells: BxPC-3 (ATCC CRL-1687), 40-55% ammonium sulfate fraction of the cell lysate
In words: dCDA activity (competition) assay, conversion of dCyd to dUrd. The format is biochemical. The note with it: 0.5 mM dCyd, 37° C., 15 min; inhibitor […] (FIG. 2B). Here is the method: Proton NMR spectra were recorded on a 300 MHz Varian UNITYplus™ or a 500 MHz Varian INOVA. Chemical shifts (δ) of ^1H NMR spectra were recorded in parts per million (ppm) relative to tetramethylsilane (TMS), which was the reference (δ=0 ppm). ^1H NMR data are reported according to the following order: chemical shift, integration (i.e., number of hydrogen atoms), multiplicity (s=singlet, d=doublet, t=triplet, q=quartet, m=multiplet, br=broad, brs=broad singlet), and coupling constant in Hertz (Hz). […] The concentrations of dCyd and dUrd in the dCDA assay were determined using an Agilent 1260 Infinity high performance liquid chromatography (HPLC) with an Agilent ZORBAX® Eclipse Plus C18 column (4.6×150 mm, 5 μm) attached to a ZORBAX® Eclipse Plus guard column (Agilent Technologies, Inc., Santa Clara, Calif.).
dCDA was partially purified from BxPC-3 cells as previously described. […] Protein concentration was measured using Bradford reagent from Sigma-Aldrich. […] The mixture was centrifuged at 10,000 g for 1 min, and the upper layer was analyzed using HPLC (detection wavelength, 260 nm; mobile phase, 10% methanol in water). The relevant peaks were quantified to determine the concentrations of dCyd and dUrd. […]

T1 sequence (P32320 whole entry): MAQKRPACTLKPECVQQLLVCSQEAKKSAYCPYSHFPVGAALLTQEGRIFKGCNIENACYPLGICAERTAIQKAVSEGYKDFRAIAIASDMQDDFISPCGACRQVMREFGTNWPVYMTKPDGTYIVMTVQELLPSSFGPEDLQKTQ

Regarding `Cl.Nc1ccn([C@@H]2O[C@H](CO)[C@@H](O)C2(F)F)c(=O)n1` [Gemcitabine HCl, 2′,2′-difluorodeoxycytidine HCl, reference compound], the “Inhibition of the deamination of dCyd (conversion to dUrd) by dCDA” value is reported as “competitively inhibited the conversion of dCyd to dUrd”.
